Laboratory results published in patent US11337964B2, “Isoindoline derivative, pharmaceutical composition and use thereof” (Kangpu Biopharmaceuticals, Ltd., priority 2017, dated 2022).
Like-named read-outs stand apart in the source and are kept apart here.

Assays:
PDE4B1 = target: T1, PDE4B1 (Homo sapiens, UniProt Q07343); assay: PDE4 activity inhibition assay, PDE4B1; assay type: biochemical; conditions: FAM-cAMP substrate, 30 minutes at room temperature
T1 construct: purchased BPS 60041
Protocol: (§1) The IC50 value of the inhibitory effect of the compound on PDE4A1A, PDE4B1 and PDE4D3 was tested.
(§2) Positive compound: Trequinsin (Sigma, Cat. No. T2057).
(§3) Equipment: Wallac Victor Multi-label counter (Perkin Elmer).
(§4) I. Preparing 1× reaction liquid and termination liquid;
(§5) II. PDE enzymatic reaction; • 1) The PDE was dissolved in 1× reaction solution to form 2× enzyme solution. • 2) FAM-cAMP was dissolved in 1× reaction solution to form 2× substrate solution. • 3) Echo 550 was used to transfer the corresponding volume of the compound in DMSO solution to the reaction plate. • 4) 2× enzyme solution was added into the corresponding well of the reaction plate and incubated with the compound solution at room temperature for 15 minutes. • 5) 2× substrate solution was added into the corresponding well of the reaction plate to initiate the reaction. • 6) Reaction plate was incubated at room temperature for 30 minutes and terminated by adding termination liquid, then incubated at room temperature for 60 minutes.
(§6) The inhibition rate was calculated by Excel; IC50 was calculated by GraphPad Prism.

PDE4A1A = target: T2, PDE4A1A (Homo sapiens, UniProt P27815); assay: PDE4 activity inhibition assay, PDE4A1A; assay type: biochemical; conditions: FAM-cAMP substrate, 30 minutes at room temperature
T2 construct: purchased BPS 60040
Protocol: as §1, §2, §3, §4, §5, §6

PDE4D3 = target: T3, PDE4D3 (Homo sapiens, UniProt Q08499); assay: PDE4 activity inhibition assay, PDE4D3; assay type: biochemical; conditions: FAM-cAMP substrate, 30 minutes at room temperature
T3 construct: purchased BPS 60046
Protocol: as §1, §2, §3, §4, §5, §6

[1] = PK parameter test in SD rats; assay type: in vivo, Sprague-Dawley rats; conditions: male SD rats; for Tmax / AUC / half-life: Sprague-Dawley, rat, plasma; for F: po 10 mg/kg vs iv 3 mg/kg
Protocol: Test compounds were administered intravenously or intragastrically singly to SD rats.
Blood samples were collected at different time points. LC-MS/MS was used to determine the concentration of the test compounds in rat plasma after administration of tested compounds and calculate the relevant PK parameters.
The test compounds are calculated based on free radicals and are converted only by purity.
A suitable amount of the test compound was added 5% DMSO+95% HP-beta-CD (20%) to prepare a solution of 0.6 mg/mL for intravenous administration.
A suitable amount of the test compound was added 5% DMSO+95% HP-beta-CD (20%) to prepare a solution of 1 mg/mL for intragastrical administration.
Male Sprague-Dawley rats were purchased from Shanghai Xipuer-Bikai Laboratory Animal Co., Ltd. There were 3 rats in each group. One group was used as control to collect blank plasma. The other groups were given each test compound by intravenous injection (the dose was 3 mg/kg) or intragastrical administration (the dose was 10 mg/kg). Heparin sodium was used for anticoagulation. Analyze the concentration of the test compound in the blood sample.
Abrosia for 10-14 hours before oral administration of the test compounds and resume feeding 4 hours after oral administration of the test compounds.
The time points of blood sample collection were: intravenous injection: before administration and at 0.083 hour, 0.25 hour, 0.5 hour, 1 hour, 2 hour, 4 hour, 6 hour, 8 hour, 24 hour after administration; oral administration: before administration and at 0.25 hour, 0.5 hour, 1 hour, 2 hour, 4 hour, 6 hour, 8 hour, 24 hour after administration. Blood samples were collected through jugular vein puncture. About 0.25 mL blood was collected for each sample. Heparin sodium was used for anticoagulation and the samples were placed on ice after collection. Blood samples were placed on ice after collection, and plasma was separated by centrifugation (centrifugation condition: 8000 rpm, 6 min, 2-8° C.). The collected plasma was stored at −80° C. before analysis.
50 μL plasma sample was added into a 1.5 mL centrifugal tube, and 250 μL internal standard solution (the same volume of methanol was added to blank sample instead of internal standard) was added to the sample. The sample was mixed in a whirlpool and centrifuged for 5 minutes at 14000 rpm. The supernatant of 200 μL was added to 96-well plate for LC-MS/MS analysis.
The pharmacokinetic parameters of the test compounds were calculated using the non-compartment model of WinNonlin v5.2, a software for pharmacokinetic calculation, based on the data of plasma concentration.

[2] = po, intragastrical administration 10 mg/kg
[3] = po, intragastrical administration 10 mg/kg, read-out: AUC(po)
[4] = po, intragastrical administration 10 mg/kg, read-out: T1/2(po) (converted)
[5] = intravenous injection 3 mg/kg, read-out: AUC(iv)
[6] = intravenous injection 3 mg/kg, read-out: T1/2 (IV) (converted)

T2 sequence (P27815 1-647 isoform P27815-4): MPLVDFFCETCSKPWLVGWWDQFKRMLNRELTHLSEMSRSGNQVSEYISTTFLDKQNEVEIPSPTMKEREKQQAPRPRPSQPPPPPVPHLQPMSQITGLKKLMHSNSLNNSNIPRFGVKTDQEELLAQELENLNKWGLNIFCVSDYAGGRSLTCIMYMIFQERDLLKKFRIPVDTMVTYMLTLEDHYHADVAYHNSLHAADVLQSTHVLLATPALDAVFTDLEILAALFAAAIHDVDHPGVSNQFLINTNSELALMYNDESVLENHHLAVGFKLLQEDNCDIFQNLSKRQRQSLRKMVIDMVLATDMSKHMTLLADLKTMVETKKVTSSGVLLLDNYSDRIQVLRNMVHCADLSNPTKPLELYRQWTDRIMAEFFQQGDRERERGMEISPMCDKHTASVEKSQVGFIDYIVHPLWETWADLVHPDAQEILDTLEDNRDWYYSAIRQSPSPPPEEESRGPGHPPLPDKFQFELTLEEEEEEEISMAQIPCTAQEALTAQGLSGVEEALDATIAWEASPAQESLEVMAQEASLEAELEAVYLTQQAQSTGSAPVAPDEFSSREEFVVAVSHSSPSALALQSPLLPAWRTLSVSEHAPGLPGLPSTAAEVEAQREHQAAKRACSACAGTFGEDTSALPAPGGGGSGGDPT
T1 sequence (Q07343 whole entry): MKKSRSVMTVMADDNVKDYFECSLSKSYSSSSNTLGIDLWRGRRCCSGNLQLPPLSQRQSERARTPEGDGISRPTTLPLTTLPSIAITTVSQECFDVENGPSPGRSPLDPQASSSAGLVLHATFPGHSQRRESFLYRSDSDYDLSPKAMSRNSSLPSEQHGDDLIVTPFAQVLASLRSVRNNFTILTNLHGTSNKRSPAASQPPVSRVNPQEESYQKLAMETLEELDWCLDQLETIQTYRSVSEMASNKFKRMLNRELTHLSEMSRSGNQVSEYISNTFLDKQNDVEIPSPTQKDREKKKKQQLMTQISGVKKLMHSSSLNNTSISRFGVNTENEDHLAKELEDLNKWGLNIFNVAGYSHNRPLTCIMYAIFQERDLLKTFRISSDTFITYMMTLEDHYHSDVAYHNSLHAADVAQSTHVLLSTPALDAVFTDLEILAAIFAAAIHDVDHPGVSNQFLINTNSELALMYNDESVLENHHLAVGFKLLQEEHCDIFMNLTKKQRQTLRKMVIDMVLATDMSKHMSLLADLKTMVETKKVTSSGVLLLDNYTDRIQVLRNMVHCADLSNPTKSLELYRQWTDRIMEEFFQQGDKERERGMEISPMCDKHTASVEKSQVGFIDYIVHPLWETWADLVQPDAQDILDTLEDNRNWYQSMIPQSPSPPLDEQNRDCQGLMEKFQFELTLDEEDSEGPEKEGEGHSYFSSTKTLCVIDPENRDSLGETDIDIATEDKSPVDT
T3 sequence (Q08499 1-673 isoform Q08499-2): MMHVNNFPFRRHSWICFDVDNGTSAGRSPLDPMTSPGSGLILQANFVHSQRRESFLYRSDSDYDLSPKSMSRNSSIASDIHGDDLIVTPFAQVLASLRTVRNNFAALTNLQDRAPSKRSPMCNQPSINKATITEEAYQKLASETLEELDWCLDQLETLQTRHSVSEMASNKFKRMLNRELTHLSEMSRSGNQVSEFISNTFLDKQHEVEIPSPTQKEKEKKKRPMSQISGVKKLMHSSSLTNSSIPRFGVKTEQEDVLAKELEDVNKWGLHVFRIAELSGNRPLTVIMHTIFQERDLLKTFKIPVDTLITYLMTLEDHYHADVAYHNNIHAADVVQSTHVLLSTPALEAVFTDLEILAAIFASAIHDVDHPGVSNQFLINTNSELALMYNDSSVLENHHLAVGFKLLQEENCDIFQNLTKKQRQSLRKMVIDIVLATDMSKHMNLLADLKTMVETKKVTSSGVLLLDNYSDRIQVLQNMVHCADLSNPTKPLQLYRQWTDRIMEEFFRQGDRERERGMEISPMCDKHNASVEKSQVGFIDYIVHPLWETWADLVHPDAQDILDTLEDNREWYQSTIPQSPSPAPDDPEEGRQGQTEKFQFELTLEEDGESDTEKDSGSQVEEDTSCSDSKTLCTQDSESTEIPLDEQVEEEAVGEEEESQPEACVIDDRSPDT

| SMILES | IC50 (PDE4B1) | IC50 (PDE4A1A) | IC50 (PDE4D3) | Tmax [1, 2] | AUC [1, 3] | half-life [1, 4] | AUC [1, 5] | half-life [1, 6] | F [1] |
| --- | --- | --- | --- | --- | --- | --- | --- | --- | --- |
| [2H]C([2H])([2H])Oc1ccc([C@@H](CS(C)(=O)=O)N2C(=O)c3c(F)ccc(NC(C)=O)c3C2=O)cc1OCC [Compound 103, (S)—N-(2-(1-(3-ethoxy-4-d3-methoxyphenyl)-2-(methylsulfonyl)ethyl)-7-fluoro-1,3-dioxoisoindolin-4-yl)acetamide] | 12.8 nM | 7.25 nM | 3.7 nM | 120 min | 4120 ng·h/mL | 230 min | 1260 ng·h/mL | 63 min | 98.2 |
| [2H]C([2H])([2H])Oc1ccc([C@@H](CS(C)(=O)=O)N2C(=O)c3cc(F)cc(NC(C)=O)c3C2=O)cc1OCC [Compound 203, (S)—N-(2-(l-(3-ethoxy-4-d3-methoxyphenyl)-2-(methylsulfonyl)ethyl)-6-fluoro-1,3-dioxoisoindolin-4-yl)acetamide] | 31 nM | 22 nM | 18 nM | 30 min | 250 ng·h/mL | 52.2 min | 1010 ng·h/mL | 57 min | 7.4 |
| CCOc1nc([C@@H](CS(C)(=O)=O)N2C(=O)c3cccc(NC(C)=O)c3C2=O)ccc1OC [Compound 702, (S)—N-(2-(1-(6-ethoxy-5-methoxypyridin-2-yl)-2-(methylsulfonyl)ethyl)-1,3-dioxoisoindolin-4-yl)acetamide] | 4.7 nM | 2.2 nM | 4 nM | 40.2 min | 1050 ng·h/mL | 392 min | 1330 ng·h/mL | 22.8 min | 15.5 |
| CCOc1nc([C@@H](CS(C)(=O)=O)N2C(=O)c3c(F)ccc(NC(C)=O)c3C2=O)ccc1OC [Compound 705, (S)—N-(2-(1-(6-ethoxy-5-methoxypyridin-2-yl)-2-(methylsulfonyl)ethyl)-7-fluoro-1,3-dioxoisoindolin-4-yl)acetamide] | 1.6 nM | 0.58 nM | 0.53 nM | 30 min | 3590 ng·h/mL | 555 min | 1340 ng·h/mL | 55.2 min | 80.2 |
| CCOc1nc([C@@H](CS(C)(=O)=O)N2C(=O)c3cc(F)cc(NC(C)=O)c3C2=O)ccc1OC [Compound 708, (S)—N-(2-(1-(6-ethoxy-5-methoxypyridin-2-yl)-2-(methylsulfonyl)ethyl)-6-fluoro-1,3-dioxoisoindolin-4-yl)acetamide] | 5.1 nM | 3.1 nM | 1.6 nM | 40.2 min | 51 ng·h/mL | 253 min | 945 ng·h/mL | 32.4 min | 1.62 |

Continued, values first:

| IC50 (PDE4B1) | IC50 (PDE4A1A) | IC50 (PDE4D3) | Tmax [1, 2] | AUC [1, 3] | half-life [1, 4] | AUC [1, 5] | half-life [1, 6] | F [1] | SMILES |
| --- | --- | --- | --- | --- | --- | --- | --- | --- | --- |
| 1.7 nM | 1.7 nM | 1.2 nM | – | – | – | – | – | – | [2H]C([2H])([2H])Oc1ccc([C@@H](CS(C)(=O)=O)N2C(=O)c3cccc(NC(=O)C4CC4)c3C2=O)nc1OCC [Compound 773, (S)—N-(2-(1-(6-ethoxy-5-d3-methoxypyridin-2-yl)-2-(methylsulfonyl)ethyl)-1,3-dioxoisoindolin-4-yl)cyclopropanecarboxamide] |
| 364 nM | 295 nM | 202 nM | – | – | – | – | – | – | CCOc1cc(C(CS(C)(=O)=O)N2C(=O)c3cccc(NC(C)=O)c3C2=O)cnc1OC (stereo not drawn) [Compound 801, N-(2-(1-(5-ethoxy-6-methoxypyridin-3-yl)-2-(methylsulfonyl)ethyl)-1,3-dioxoisoindolin-4-yl)acetamide] |
| 484 nM | 411 nM | 248 nM | – | – | – | – | – | – | CCOc1cc(C(CS(C)(=O)=O)N2C(=O)c3cccc(NC(C)=O)c3C2=O)ncc1OC (stereo not drawn) [Compound 901, N-(2-(1-(4-ethoxy-5-methoxypyridin-2-yl)-2-(methylsulfonyl)ethyl)-1,3-dioxoisoindolin-4-yl)acetamide] |
| – | – | – | 60 min | 785 ng·h/mL | 56.4 min | 1050 ng·h/mL | 28.2 min | 22.5 | CCOc1cc([C@@H](CS(C)(=O)=O)N2C(=O)c3cccc(NC(C)=O)c3C2=O)ccc1OC [Reference compound 2, reference compound] |
